Reference: ChEMBL document CHEMBL1131330, “d-Fused [1]benzazepines with selective in vitro antitumor activity: synthesis and structure-activity relationships” (1998)

Key:
Assay type in all cases: functional
[1] = system: TK-10; experiment: Compound was tested for antitumor activity against TK-10 renal cancer cell line(molar concentration leading to 50% net cell death); conditions: Homo sapiens
[2] = system: TK-10; experiment: Compound was tested for antitumor activity against TK-10 renal cancer cell line(molar concentration that inhibits 50% net cell growth); conditions: Homo sapiens
[3] = system: ACHN; experiment: Compound was tested for antitumor activity against ACHN renal cancer cell line(molar concentration that inhibits 50% net cell growth).; conditions: Homo sapiens
[4] = system: 786-0; experiment: Compound was tested for antitumor activity against 786-0 renal cancer cell line(molar concentration that inhibits 50% net cell growth).; conditions: Homo sapiens
[5] = system: 786-0; experiment: Compound was tested for antitumor activity against 786-0 renal cancer cell line(molar concentration leading to 50% net cell death); conditions: Homo sapiens, read-out: Log LC50 (the source's name) (converted)
[6] = system: ACHN; experiment: Compound was tested for antitumor activity against ACHN renal cancer cell line(molar concentration leading to 50% net cell death).; conditions: Homo sapiens

Structure (SMILES)	LC50 (concentration causing 50% net cell death) [1] [µM]	GI50 [2] [µM]	GI50 [3] [µM]	GI50 [4] [µM]	CC50 [5] [µM]	LC50 (50% net cell death) [6] [µM]
SC1=Nc2ccc(Br)cc2-c2nc(-c3ccccc3)cc(-c3ccccc3)c2C1	18.6	1.23	0.741	1.17	7.08	8.51
SC1=Nc2ccccc2-c2nc(-c3ccccc3)cc(-c3ccc(Br)cc3)c2C1	7.76	1.78	0.871	0.631	4.47	5.89
O=C1Cc2c(-c3ccccc3)cc(-c3ccccc3)nc2-c2ccccc2N1	> 100	2.45	4.07	4.17	> 100	70.8
O=C1Cc2c(-c3ccc(Br)cc3)cc(-c3ccccc3)nc2-c2ccccc2N1	2.24	0.186	3.98	1.62	9.55	50.1
O=C1Cc2c(-c3ccccc3)cc(-c3ccccc3)nc2-c2cc(Br)ccc2N1	9.12	0.427	1.26	0.631	4.79	15.5
SC1=Nc2ccccc2-c2nc(-c3cccc(Cl)c3)cc(-c3ccccc3)c2C1	9.55	0.437	0.617	0.977	4.79	19.1
O=C1Cc2c(-c3ccccc3)cc(-c3cccc(Cl)c3)nc2-c2ccccc2N1	17.4	1.48	1.15	0.977	5.37	24.5
